Results published in paper PMC4010497, “Synthesis and Evaluation of Fluorine-Substituted Phenyl Acetate Derivatives as Ultra-Short Recovery Sedative/Hypnotic Agents” (PLoS ONE, 2014).

Tests used:
rat [1] = test: Therapeutic index (LD50/HD50) in rat; format: in vivo
Experimental: (§1) The LD50 was determined in mice, rats, and rabbits and the TI was calculated as LD50/HD50.

[2] = Octanol:water partition coefficient; format: physicochemical; conditions: water buffered with 10 mm Tris (pH 7.4)
Experimental: One mg of each hypnotic was added to 10 ml of water buffered with 10 mm Tris (pH 7.4) and 1 ml of octanol. The mixture was stirred overnight and then centrifuged to fully separate the organic and aqueous phases. The relative hypnotic concentration in each phase (i.e., the partition coefficient) was determined by high-performance liquid chromatography as described for blood.

rat [3] = format: in vivo
Experimental: All tests were performed during the light period. Groups of mice, rats and rabbits were injected intravenously (lateral tail vein) over 10 s with each dose of test compound, placed in separate boxes to reduce external stimuli and assessed for the loss of righting reflex. Dosing was performed using mg/kg scheme. A set of dose levels was chosen, and depending on whether the loss of righting reflex was observed, extra doses were introduced to provide data for the loss of righting reflex over a narrow dose range to allow potency calculations. From the percentage of mice, rats and rabbits in each group showing loss of righting reflex for ≥30 s, a probit analysis (SAS Institute) was performed to obtain an HD50 for each compound with 95% confidence limits.
Immediately following the injection, the mice, rats and rabbits were tested for loss of righting reflex. […] Once a loss was observed, the interval between the loss of righting reflex and the return to righting reflex was recorded. The anesthetized animals recovered righting reflexes spontaneously. To compare the duration of LORR of each compound at equipotent doses, groups of mice, rats and rabbits were injected with each compound at 2× HD50 over 10 s.
Time to walk was the time required after righting before mice and rabbits walked from the center to the periphery of a 30-cm diameter dise.
The rotarod test was conducted to evaluate the recovery to the motor coordination. Before the LORR test, mice were trained for 2 consecutive days. Trained mice could maintain their balance on rod for more than 2 mins. After the mice could walk from the center to the periphery of a 30-cm diameter dise, they were put on the rotarod. Mice were classified as behavioral recovery when, on being placed on the rod, they could maintain their balance for 20 s. The time to behavioral recovery was the time required after mice walked from the centre to the periphery of a 30-cm diameter disc before they could maintain their balance on rod for 20 s.

in vivo = conditions: mouse, in vivo; mice, 95% confidence limits
Experimental: as §1

mice = test: in vivo; conditions: LD50/HD50
Experimental: as §1

[4] = In vitro metabolic half-life in monkey whole blood; format: in vitro ADME; conditions: male, Cynomolgus monkey (n = 3), 37°C, read-out: Mean t1/2 Value
Experimental: (§2) Human whole blood stability experiments were conducted in whole blood from four human donors (male, 18–25 years). Single experiments were conducted with pooled blood from Sprague-Dawley rats (male, 8 weeks, n = 3), New Zealand White rabbits (male, 8–10 weeks, n = 3), Beagle dogs (male, 2–3 years, n = 3) and Cynomolgus monkeys (male, 3–4 years, n = 3). All the blood samples were provided by Xuzhou Medical College. A 1.35-ml aliquot of blood was warmed at 37°C for 5 min and hypnotic (from a 40 mM stock in DMSO solution) was added to a final concentration of 200 µM. After the specified incubation time, a 150-µl sample was removed and the metabolic reaction was quenched using 150-µl acetonitrile. Zero time-point samples were prepared by adding 150-µl acetonitrile (using a 4 mM stock in DMSO) to 150-µl blood before addition of the hypnotic. The quenched samples were centrifuged, and the supernatant was separated and stored at −20°C until analyzed. Hypnotic concentrations in thawed samples were determined by high-performance liquid chromatography using a 3-µm phenyl 4.6×50-mm C-A-25, ACE column with the UV detector set at 240 nm. […] The lower limit of quantitation of this assay is 3 µM and the accuracy within 15% at 10 µM. The metabolic half-lives were quantified from the incubation time-dependent change in drug concentration.

[5] = biological target: T1, human GABAA receptor α1, β2 and γ2 (CHO-K1 cells) (Homo sapiens, UniProt P14867+P18507+P47870); test: cell-based; conditions: GABAA (α1β2γ2) CHO-K1 cell
T1 construct: expressed in transfected cells; host or cells: CHO-K1 cells, stably transfected
Experimental: Chinese hamster ovary (CHO)-K1 cells transfected stably with human GABAA receptor α1, β2 and γ2 subunit cDNAs were used. The cells were plated onto collagen-coated 35-mm cell culture dishes at low density for 1–7 days before recording. Test solutions were prepared in the extracellular solution on the day the patch-clamp assay was performed. The intracellular solution consisted of 22 mM KCl, 110 mM K-aspartate, 8 mM NaCl, 1 mM MgCl2, 1 mM CaCl2, 10 mM ethylene glycol tetraacetic acid, 5 mM Na2ATP, 10 mM hydroxyethyl piperazineethanesulfonic acid (HEPES) (adjusted to pH 7.2 using KOH), while the extracellular solution contained 145 mM NaCl, 4 mM KCl, 2 mM CaCl2, 2 mM MgCl2, 10 mM HEPES (adjusted to pH 7.4 using NaOH). The assay was performed at room temperature. Cells were maintained at −70 mV and the potentiation effect was assessed by co-application of the test compound with EC20 of muscimol after the cell was pre-incubated with the test compound for 45 s. GABA EC20 measured individually in each cell. The amplitude of the Cl− current in response to muscimol and/or test compound was determined. The response to the co-application of the test compound and muscimol was normalized to the control muscimol response as a percentage of the control. A potentiation effect was indicated by a value >100% of the control response. EC50 values were calculated using the four parameter logistic equation, where E was the amplitude of the muscimol-induced current in the presence of the anesthetic at concentration [A], EMAX was the amplitude of the response in the presence of a maximally effective concentration of the anesthetic, EC50 was the concentration of anesthetic producing a half-maximal enhancement of the muscimol-induced response and nH was the Hill coefficient. [drawing 1]

[6] = In vitro metabolic half-life in dog whole blood; format: in vitro ADME, Beagle dog
Experimental: Human whole blood stability experiments were conducted in whole blood from four human donors (male, 18–25 years). Single experiments were conducted with pooled blood from Sprague-Dawley rats (male, 8 weeks, n = 3), New Zealand White rabbits (male, 8–10 weeks, n = 3), Beagle dogs (male, 2–3 years, n = 3) and Cynomolgus monkeys (male, 3–4 years, n = 3). All the blood samples were provided by Xuzhou Medical College. A 1.35-ml aliquot of blood was warmed at 37°C for 5 min and hypnotic (from a 40 mM stock in DMSO solution) was added to a final concentration of 200 µM. After the specified incubation time, a 150-µl sample was removed and the metabolic reaction was quenched using 150-µl acetonitrile. Zero time-point samples were prepared by adding 150-µl acetonitrile (using a 4 mM stock in DMSO) to 150-µl blood before addition of the hypnotic. The quenched samples were centrifuged, and the supernatant was separated and stored at −20°C until analyzed. Hypnotic concentrations in thawed samples were determined by high-performance liquid chromatography using a 3-µm phenyl 4.6×50-mm C-A-25, ACE column with the UV detector set at 240 nm. A linear gradient 20–45% acetonitrile in water with 0.05% trifluoroacetic acid was run for more than 20 min at a flow rate of 1 ml/min. The lower limit of quantitation of this assay is 3 µM and the accuracy within 15% at 10 µM. The metabolic half-lives were quantified from the incubation time-dependent change in drug concentration.

[7] = In vitro metabolic half-life in rat whole blood; format: in vitro ADME; conditions: male, Sprague-Dawley Rat (n = 3), 37°C, read-out: Mean t1/2 Value
Experimental: as §2

T1 sequence (P14867 28-456): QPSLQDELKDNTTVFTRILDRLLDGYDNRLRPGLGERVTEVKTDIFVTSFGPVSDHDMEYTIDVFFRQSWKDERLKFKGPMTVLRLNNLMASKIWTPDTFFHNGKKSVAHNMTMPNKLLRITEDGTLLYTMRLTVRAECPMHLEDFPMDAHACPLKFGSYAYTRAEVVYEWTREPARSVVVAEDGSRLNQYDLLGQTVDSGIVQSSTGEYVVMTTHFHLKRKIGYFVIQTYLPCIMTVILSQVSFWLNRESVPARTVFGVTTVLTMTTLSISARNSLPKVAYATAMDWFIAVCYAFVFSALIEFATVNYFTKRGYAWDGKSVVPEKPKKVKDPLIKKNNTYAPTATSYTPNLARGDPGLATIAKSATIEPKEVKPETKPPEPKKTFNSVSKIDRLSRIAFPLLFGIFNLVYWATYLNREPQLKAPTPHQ
T1 sequence (P47870 25-512 limits assumed): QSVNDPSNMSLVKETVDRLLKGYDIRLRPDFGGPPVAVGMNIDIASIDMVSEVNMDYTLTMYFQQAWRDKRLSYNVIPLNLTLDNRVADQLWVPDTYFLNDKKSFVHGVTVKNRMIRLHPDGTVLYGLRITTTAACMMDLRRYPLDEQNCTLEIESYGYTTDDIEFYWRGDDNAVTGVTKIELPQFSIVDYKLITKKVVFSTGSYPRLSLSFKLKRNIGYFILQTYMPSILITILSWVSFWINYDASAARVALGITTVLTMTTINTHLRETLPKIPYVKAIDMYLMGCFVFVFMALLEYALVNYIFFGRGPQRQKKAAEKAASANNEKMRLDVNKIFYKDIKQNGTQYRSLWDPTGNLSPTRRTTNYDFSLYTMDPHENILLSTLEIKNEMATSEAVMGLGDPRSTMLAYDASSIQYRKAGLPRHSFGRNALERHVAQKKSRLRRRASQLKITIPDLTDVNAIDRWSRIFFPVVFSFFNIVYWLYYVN
T1 sequence (P18507 40-475): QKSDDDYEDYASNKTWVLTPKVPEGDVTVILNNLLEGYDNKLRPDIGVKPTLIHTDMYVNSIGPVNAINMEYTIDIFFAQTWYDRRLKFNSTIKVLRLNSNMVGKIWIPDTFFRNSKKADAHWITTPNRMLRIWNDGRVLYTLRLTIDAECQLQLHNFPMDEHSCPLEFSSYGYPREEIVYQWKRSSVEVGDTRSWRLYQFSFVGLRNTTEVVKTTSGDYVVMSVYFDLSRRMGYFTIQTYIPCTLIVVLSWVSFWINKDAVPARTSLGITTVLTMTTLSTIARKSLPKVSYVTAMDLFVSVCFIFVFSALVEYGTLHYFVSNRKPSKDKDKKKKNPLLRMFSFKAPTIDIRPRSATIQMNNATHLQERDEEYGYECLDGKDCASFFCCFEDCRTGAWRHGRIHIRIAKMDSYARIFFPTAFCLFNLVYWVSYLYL

CCOc1cc(CC(=O)OCC(F)(F)F)ccc1OCC(=O)N(CC)CC [Compound 5j, 2,2,2-trifluoroethyl 2-(4-(2-(diethylamino)-2-oxoethoxy)-3-ethoxyphenyl)acetate]
TI (rat [1]): 13.3
Octanol:Water Partition (Coefficient ± SD) [2]: 648±36
Duration of LORR (rat [3]; 2× HD50 dose, mean ± SD): 66.5 ± 8.7 s
Time to walk (rat [3]; 2× HD50 dose, mean ± SD): 14.2 ± 5.4 s
time to behavioral recovery (rat [3]; 2× HD50 dose, mean ± SD): 22.8 ± 3.2 s
HD50 (rat [3]; IV, 95% confidence limits): 12.9 (10.6∼13.7) mg/kg
LD50 (in vivo): 192 mg/kg
TI (mice): 7.8
half-life at 200 µM [4]: 48.9 ± 8.8 min
maximum potentiation relative to that of propanidid [5]: ~150%
maximum potentiation relative to that produced by propofol [5]: approximately 50%
EC50 ([5]; patch clamp, read-out: EC50, potentiation of EC20 muscimol evoked chloride currents): 12 µM
stability in blood (in words) ([6]; dog blood): stable
half-life at 200 µM ([6]; male, whole blood, Beagle dog (n = 3), 37°C, 200 µM, read-out: Mean t1/2 Value): > 60 min
half-life at 200 µM [7]: 0.4 ± 0.1 min
